The values below come from patent publication US20130157953A1, “TREATMENT OF CARDIAC CONDITIONS” (Zealand Pharma A/S, priority 2010, published 2013).

Numbered stars: 1 amine (or outer) side, 2 acyl side, 3 side chain; on linkers, the order of the positions; unused ones are H or OH. Bridge positions count the residues as written; N and C are the ends. Square brackets hold non-standard residues; d marks the D form. Side chains are listed from the residue outwards. Peptide text beside a SMILES is read from it. * marks the point of attachment. γGlu = O=C(O)[C@H](CCC(=O)[*:2])N[*:1]; Palmitoyl = CCCCCCCCCCCCCCCC(=O)*; Aib = CC(C)(N)C(=O)O

T2 sequence (P43220 24-463): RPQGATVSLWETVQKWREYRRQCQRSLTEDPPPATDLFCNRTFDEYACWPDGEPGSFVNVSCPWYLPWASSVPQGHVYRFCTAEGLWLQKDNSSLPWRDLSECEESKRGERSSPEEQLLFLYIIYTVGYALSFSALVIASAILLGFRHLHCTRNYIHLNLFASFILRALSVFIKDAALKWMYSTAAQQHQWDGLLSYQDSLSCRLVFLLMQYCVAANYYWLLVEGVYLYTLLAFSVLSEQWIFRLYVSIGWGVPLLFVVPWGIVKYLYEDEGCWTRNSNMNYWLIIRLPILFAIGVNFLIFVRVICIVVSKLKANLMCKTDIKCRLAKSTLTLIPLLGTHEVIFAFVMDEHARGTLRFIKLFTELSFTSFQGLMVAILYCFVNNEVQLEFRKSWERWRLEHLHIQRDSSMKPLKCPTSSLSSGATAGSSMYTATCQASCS

One assay deals with T1, human glucagon receptor (Homo sapiens, UniProt P47871).
T1 construct: expressed in transfected cells; host or cells: HEK293
T1 sequence (P47871 26-477): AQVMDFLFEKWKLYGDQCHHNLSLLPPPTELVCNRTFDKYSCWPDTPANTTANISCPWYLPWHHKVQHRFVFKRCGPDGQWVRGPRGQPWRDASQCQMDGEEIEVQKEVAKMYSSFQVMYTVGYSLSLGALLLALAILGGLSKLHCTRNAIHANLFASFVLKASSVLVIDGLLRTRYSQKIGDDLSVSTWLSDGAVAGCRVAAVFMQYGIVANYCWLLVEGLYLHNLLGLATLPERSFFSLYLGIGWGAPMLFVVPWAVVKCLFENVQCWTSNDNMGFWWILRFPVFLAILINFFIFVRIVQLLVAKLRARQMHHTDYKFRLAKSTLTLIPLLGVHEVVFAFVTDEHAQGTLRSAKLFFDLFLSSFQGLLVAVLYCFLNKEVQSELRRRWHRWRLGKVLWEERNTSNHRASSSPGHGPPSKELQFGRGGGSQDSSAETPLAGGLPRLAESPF
The assay is described as follows: cAMP formation in HEK293 cells expressing the human glucagon receptor. Format: cell-based. The conditions noted are these: 15 min at 37° C., read-out: EC50 (nM) GuR. From the text: (§1) Similarly, activation of the GLP-1 receptor by a GLP-1 agonist will stimulate cellular cAMP formation. Thus, production of cAMP in suitable cells expressing one of these two receptors can be used to monitor the relevant receptor activity.
(§2) The skilled person will be aware of suitable assay formats, and examples are provided below. […] (Where sequences of precursor proteins are referred to, it should of course be understood that assays may make use of the mature protein, lacking the signal sequence).
(§3) On the day of analysis, growth medium was removed and the cells washed once with 200 μl Tyrode buffer. Cells were incubated in […] containing increasing concentrations of test peptides, 100 μM IBMX, and 6 mM glucose for 15 min at 37° C. The reaction was stopped by addition of 25 μl 0.5 M HCl and incubated on ice for 60 min. The cAMP content was estimated using the FlashPlate® cAMP kit from Perkin-Elmer. EC50 values were estimated by computer aided curve fitting.
Consider “H-HSQGTFTSDYSKYLDSALAQDFVWLLNT-NH2 [Compound 255]”, for which the EC50 is 0.1 nM.

Turning to “H-HSQGTFTSDYSKYLDSKAAHDFVEWLLRA-NH2 [Compound 48]”, the 50% effective concentration (EC50) turned out to be 0.06 nM.

On to “H-HSQGTFTSDYSRYLDERRAQDFVWLMNT-NH2 [Compound 258]”, for which the half-maximal effective concentration (EC50) was 0.06 nM.

Consider “H-HSQGTFTSDYSKYLDSKAAQDFVWLMNT-NH2 [Compound 260]”, for which the EC50 was found to be 0.07 nM.

A further assay has as its target T2, human GLP-1R (Homo sapiens, UniProt P43220).
T2 construct: expressed in transfected cells; host or cells: HEK293
The assay is described as follows: cAMP formation in HEK293 cells expressing human GLP-1R. The settings on record: 15 min at 37° C. In kind it is cell-based.
Excerpt: as §1, §2, §3
`CCCCCCCCCCCCCCCC(=O)NCCCCCCCC(=O)NCCCC[C@H](NC(=O)[C@H](CO)NC(=O)[C@H](CC(=O)O)NC(=O)[C@H](CC(C)C)NC(=O)[C@H](Cc1ccc(O)cc1)NC(=O)[C@H](CCCCN)NC(=O)[C@H](CO)NC(=O)[C@H](Cc1ccc(O)cc1)NC(=O)[C@H](CC(=O)O)NC(=O)[C@H](CO)NC(=O)[C@@H](NC(=O)[C@H](Cc1ccccc1)NC(=O)[C@@H](NC(=O)CNC(=O)[C@H](CCC(N)=O)NC(=O)C(C)(C)NC(=O)[C@@H](N)Cc1c[nH]cn1)[C@@H](C)O)[C@@H](C)O)C(=O)N[C@@H](C)C(=O)N[C@@H](C)C(=O)N[C@@H](Cc1c[nH]cn1)C(=O)N[C@@H](CC(=O)O)C(=O)N[C@@H](Cc1ccccc1)C(=O)N[C@H](C(=O)N[C@@H](CCC(=O)O)C(=O)N[C@@H](Cc1c[nH]c2ccccc12)C(=O)N[C@@H](CC(C)C)C(=O)N[C@@H](CC(C)C)C(=O)N[C@@H](CO)C(=O)N[C@@H](C)C(N)=O)C(C)C` [Compound 216] registered a concentration giving a half-maximal response (EC50) of 0.24 nM.

Take “H-HSQGTFTSDYSRYLDSRRAKDFVWLLNT-NH2 [Compound 252]”: it took 0.5 nM to reach a half-maximal effect (EC50).

For the compound “H-HSQGTFTSDYSKYLDSALAQDFVWLLNT-NH2 [Compound 255]”, the concentration giving a half-maximal response (EC50) turned out to be 0.24 nM.

With `CC(C)C[C@H](NC(=O)[C@H](CC(C)C)NC(=O)[C@H](Cc1c[nH]c2ccccc12)NC(=O)[C@H](CCC(=O)O)NC(=O)[C@@H](NC(=O)[C@H](Cc1ccccc1)NC(=O)[C@H](CC(=O)O)NC(=O)[C@H](Cc1c[nH]cn1)NC(=O)[C@H](C)NC(=O)[C@H](C)NC(=O)[C@H](CCCCN)NC(=O)[C@H](CO)NC(=O)[C@H](CC(=O)O)NC(=O)[C@H](CC(C)C)NC(=O)[C@H](Cc1ccc(O)cc1)NC(=O)[C@H](CCCCN)NC(=O)[C@H](CO)NC(=O)[C@H](Cc1ccc(O)cc1)NC(=O)[C@H](CC(=O)O)NC(=O)[C@H](CO)NC(=O)[C@@H](NC(=O)[C@H](Cc1ccccc1)NC(=O)[C@@H](NC(=O)CNC(=O)[C@H](CCC(N)=O)NC(=O)[C@@H](CO)NC(=O)[C@@H](N)Cc1c[nH]cn1)[C@@H](C)O)[C@@H](C)O)C(C)C)C(=O)N[C@@H](CCCNC(=N)N)C(=O)N[C@@H](C)C(N)=O` [Compound 44] (H-H[dS]QGTFTSDYSKYLDSKAAHDFVEWLLRA-NH2), a half-maximal effect (EC50) was put at 0.09 nM.

On to `CCCCCCCCCCCCCCCC(=O)NCCCC[C@H](N)C(=O)NCCCC[C@H](NC(=O)[C@H](CO)NC(=O)[C@H](CC(=O)O)NC(=O)[C@H](CC(C)C)NC(=O)[C@H](Cc1ccc(O)cc1)NC(=O)[C@H](CCCCN)NC(=O)[C@H](CO)NC(=O)[C@H](Cc1ccc(O)cc1)NC(=O)[C@H](CC(=O)O)NC(=O)[C@H](CO)NC(=O)[C@@H](NC(=O)[C@H](Cc1ccccc1)NC(=O)[C@@H](NC(=O)CNC(=O)[C@H](CCC(N)=O)NC(=O)C(C)(C)NC(=O)[C@@H](N)Cc1c[nH]cn1)[C@@H](C)O)[C@@H](C)O)C(=O)N[C@@H](C)C(=O)N[C@@H](C)C(=O)N[C@@H](Cc1c[nH]cn1)C(=O)N[C@@H](CC(=O)O)C(=O)N[C@@H](Cc1ccccc1)C(=O)N[C@H](C(=O)N[C@@H](CCC(=O)O)C(=O)N[C@@H](Cc1c[nH]c2ccccc12)C(=O)N[C@@H](CC(C)C)C(=O)N[C@@H](CC(C)C)C(=O)N[C@@H](CO)C(=O)N[C@@H](C)C(N)=O)C(C)C` [Compound 217], for which the EC50 was determined as 0.09 nM.

For `CCCCCCCCCCCCCCCC(=O)N[C@@H](CCC(=O)NCCCC[C@H](NC(=O)[C@H](CC(=O)O)NC(=O)[C@H](CC(C)C)NC(=O)[C@H](Cc1ccc(O)cc1)NC(=O)[C@H](CCCCN)NC(=O)[C@H](CO)NC(=O)[C@H](Cc1ccc(O)cc1)NC(=O)[C@H](CC(=O)O)NC(=O)[C@H](CO)NC(=O)[C@@H](NC(=O)[C@H](Cc1ccccc1)NC(=O)[C@@H](NC(=O)CNC(=O)[C@H](CCC(N)=O)NC(=O)[C@H](CO)NC(=O)[C@@H](N)Cc1c[nH]cn1)[C@@H](C)O)[C@@H](C)O)C(=O)N[C@@H](CCCCN)C(=O)N[C@@H](C)C(=O)N[C@@H](C)C(=O)N[C@@H](Cc1c[nH]cn1)C(=O)N[C@@H](CC(=O)O)C(=O)N[C@@H](Cc1ccccc1)C(=O)N[C@H](C(=O)N[C@@H](CCC(=O)O)C(=O)N[C@@H](Cc1c[nH]c2ccccc12)C(=O)N[C@@H](CC(C)C)C(=O)N[C@@H](CC(C)C)C(=O)N[C@@H](CCCNC(=N)N)C(=O)N[C@@H](C)C(N)=O)C(C)C)C(=O)O` [Compound 202] (H-HSQGTFTSDYSKYLDK([γGlu-Palmitoyl])KAAHDFVEWLLRA-NH2), the EC50 was determined as 0.2 nM.

Regarding `CCCCCCCCCCCCCCCC(=O)N[C@@H](CCC(=O)NCCCC[C@H](NC(=O)[C@H](CO)NC(=O)[C@H](CC(=O)O)NC(=O)[C@H](CC(C)C)NC(=O)[C@H](Cc1ccc(O)cc1)NC(=O)[C@H](CCCCN)NC(=O)[C@H](CO)NC(=O)[C@H](Cc1ccc(O)cc1)NC(=O)[C@H](CC(=O)O)NC(=O)[C@H](CO)NC(=O)[C@@H](NC(=O)[C@H](Cc1ccccc1)NC(=O)[C@@H](NC(=O)CNC(=O)[C@H](CCC(N)=O)NC(=O)[C@H](CO)NC(=O)[C@@H](N)Cc1c[nH]cn1)[C@@H](C)O)[C@@H](C)O)C(=O)N[C@@H](C)C(=O)N[C@@H](C)C(=O)N[C@@H](Cc1c[nH]cn1)C(=O)N[C@@H](CC(=O)O)C(=O)N[C@@H](Cc1ccccc1)C(=O)N[C@H](C(=O)N[C@@H](CCC(=O)O)C(=O)N[C@@H](Cc1c[nH]c2ccccc12)C(=O)N[C@@H](CC(C)C)C(=O)N[C@@H](CC(C)C)C(=O)N[C@@H](CCCNC(=N)N)C(=O)N[C@@H](C)C(N)=O)C(C)C)C(=O)O` [Compound 262] (H-HSQGTFTSDYSKYLDSK([γGlu-Palmitoyl])AAHDFVEWLLRA-NH2), the midpoint of the response, the EC50, lay at 0.11 nM.

In turn, `CSCC[C@H](NC(=O)[C@H](CC(C)C)NC(=O)[C@H](Cc1c[nH]c2ccccc12)NC(=O)[C@@H](NC(=O)[C@H](Cc1ccccc1)NC(=O)[C@H](CC(=O)O)NC(=O)[C@@H]1CCC(=O)NCCCC[C@H](NC(=O)[C@H](CC(=O)O)NC(=O)[C@H](CC(C)C)NC(=O)[C@H](Cc2ccc(O)cc2)NC(=O)[C@H](CCCCN)NC(=O)[C@H](CO)NC(=O)[C@H](Cc2ccc(O)cc2)NC(=O)[C@H](CC(=O)O)NC(=O)[C@H](CO)NC(=O)[C@@H](NC(=O)[C@H](Cc2ccccc2)NC(=O)[C@@H](NC(=O)CNC(=O)[C@H](CCC(N)=O)NC(=O)[C@H](CO)NC(=O)[C@@H](N)Cc2c[nH]cn2)[C@@H](C)O)[C@@H](C)O)C(=O)N[C@@H](CCCNC(=N)N)C(=O)N[C@@H](CCCNC(=N)N)C(=O)N[C@@H](C)C(=O)N1)C(C)C)C(=O)N[C@@H](CC(N)=O)C(=O)N[C@H](C(N)=O)[C@@H](C)O` [Compound 257] (H-HSQGTFTSDYSKYLDKRRAEDFVWLMNT-NH2; lactam 16-20) had an EC50 of 0.1 nM.

Compound `CCCCCCCCCCCCCCCC(=O)NCCC(=O)NCCCC[C@H](NC(=O)[C@H](CO)NC(=O)[C@H](CC(=O)O)NC(=O)[C@H](CC(C)C)NC(=O)[C@H](Cc1ccc(O)cc1)NC(=O)[C@H](CCCCN)NC(=O)[C@H](CO)NC(=O)[C@H](Cc1ccc(O)cc1)NC(=O)[C@H](CC(=O)O)NC(=O)[C@H](CO)NC(=O)[C@@H](NC(=O)[C@H](Cc1ccccc1)NC(=O)[C@@H](NC(=O)CNC(=O)[C@H](CCC(N)=O)NC(=O)C(C)(C)NC(=O)[C@@H](N)Cc1c[nH]cn1)[C@@H](C)O)[C@@H](C)O)C(=O)N[C@@H](C)C(=O)N[C@@H](C)C(=O)N[C@@H](Cc1c[nH]cn1)C(=O)N[C@@H](CC(=O)O)C(=O)N[C@@H](Cc1ccccc1)C(=O)N[C@H](C(=O)N[C@@H](CCC(=O)O)C(=O)N[C@@H](Cc1c[nH]c2ccccc12)C(=O)N[C@@H](CC(C)C)C(=O)N[C@@H](CC(C)C)C(=O)N[C@@H](CO)C(=O)N[C@@H](C)C(N)=O)C(C)C` [Compound 215] gave an EC50 of 0.23 nM.

In the case of `CCCCCCCCCCCCCCCC(=O)N[C@@H](CCC(=O)NCCCC[C@H](NC(=O)[C@H](CO)NC(=O)[C@H](CC(=O)O)NC(=O)[C@H](CC(C)C)NC(=O)[C@H](Cc1ccc(O)cc1)NC(=O)[C@H](CCCCN)NC(=O)[C@H](CO)NC(=O)[C@H](Cc1ccc(O)cc1)NC(=O)[C@H](CC(=O)O)NC(=O)[C@H](CO)NC(=O)[C@@H](NC(=O)[C@H](Cc1ccccc1)NC(=O)[C@@H](NC(=O)CNC(=O)[C@H](CCC(N)=O)NC(=O)C(C)(C)NC(=O)[C@@H](N)Cc1c[nH]cn1)[C@@H](C)O)[C@@H](C)O)C(=O)N[C@@H](C)C(=O)N[C@@H](C)C(=O)N[C@@H](Cc1c[nH]cn1)C(=O)N[C@@H](CC(=O)O)C(=O)N[C@@H](Cc1ccccc1)C(=O)N[C@H](C(=O)N[C@H]1CCC(=O)NCCCC[C@@H](C(=O)N[C@@H](C)C(N)=O)NC(=O)[C@H](CC(C)C)NC(=O)[C@H](CC(C)C)NC(=O)[C@H](Cc2c[nH]c3ccccc23)NC1=O)C(C)C)C(=O)O` [Compound 210] (H-H[Aib]QGTFTSDYSKYLDSK([γGlu-Palmitoyl])AAHDFVEWLLKA-NH2; lactam 24-28), the EC50 was 0.08 nM.
